The values that follow are results of earlier work, collected in patent US20050196503A1, “High-intensity sweetener-polyol compositions” (priority 2004, published 2005).

Residues, ends and D or L forms follow the SMILES beside them.

For this data set the following is noted: for sweetness relative to sucrose: percent of the sweetness of sucrose; for Approximate sweetness (sucrose = 1): relative to sucrose, weight basis; for sweetness strength or sweetening potency, times that of sucrose: in terms of weight ratio.

In the case of `OC[C@@H](O)[C@H](O)[C@@H](O)CO` [Xylitol], the “sweetness relative to sucrose” value was 100% and the “Approximate sweetness (sucrose = 1)” value is 1.0.

Consider `O=C1NS(=O)(=O)c2ccccc21` [Saccharin], for which the “Approximate sweetness (sucrose = 1)” value is listed as 300.

Regarding `OC[C@@H](O)[C@@H](O[C@@H]1O[C@H](CO)[C@H](O)[C@H](O)[C@H]1O)[C@H](O)[C@@H](O)CO` [Lactitol], the “Approximate sweetness (sucrose = 1)” value is 0.4.

For Isomalt [Isomalt (platinit)], the “Approximate sweetness (sucrose = 1)” value is 0.45-0.65.

Turning to `COC(=O)[C@H](Cc1ccccc1)NC(=O)[C@@H](N)CC(=O)O` [Aspartame] (H-Asp-Phe-OMe), the “sweetness strength or sweetening potency, times that of sucrose” value (“sweetness strength or sweetening potency” below) is recorded as “about 180 times” and the “Approximate sweetness (sucrose = 1)” value is 180.

For the compound `CC1=CC(=O)[N-]S(=O)(=O)O1.[K+]` [Acesulfame-K], the “sweetness strength or sweetening potency” value is on record as “about 200 times” and the “Approximate sweetness (sucrose = 1)” value was 200.

With `OC[C@@H](O)[C@@H](O[C@H]1O[C@H](CO)[C@@H](O)[C@H](O)[C@H]1O)[C@H](O)[C@@H](O)CO` [Malitol, maltitol], the “sweetness relative to sucrose” value is given as 90% and the “Approximate sweetness (sucrose = 1)” value is given as 0.9.

Turning to `COC(=O)[C@H](Cc1ccccc1)NC(=O)[C@H](CC(=O)O)NCCC(C)(C)C` [Neotame], the “sweetness strength or sweetening potency” value was ~10,000 times and the “Approximate sweetness (sucrose = 1)” value is 8,000.

With `OC[C@@H](O)[C@@H](O)CO` [Erythritol], the “Approximate sweetness (sucrose = 1)” value is 0.7.

As to `OC[C@@H](O)[C@@H](O)[C@H](O)[C@@H](O)CO` [Sorbitol], the “Approximate sweetness (sucrose = 1)” value was 0.6.

Take `OC[C@@H](O)[C@@H](O)[C@H](O)[C@H](O)CO` [Mannitol]: the “Approximate sweetness (sucrose = 1)” value is reported as 0.7.

Regarding `OC[C@H]1O[C@H](O[C@]2(CCl)O[C@H](CCl)[C@@H](O)[C@@H]2O)[C@H](O)[C@@H](O)[C@H]1Cl` [Sucralose], the “Approximate sweetness (sucrose = 1)” value is given as 600.
